Test results from patent US10028992B2, “Methods of treating muscular dystrophy” (BOARD OF REGENTS OF THE NEVADA SYSTEM OF HIGHER EDUCATION …, priority 2012, dated 2018).
Read-outs that look alike come from different tables or passages of the source.

System: α7 integrin promoter
Assay: muscle cell-based assay: α7βgal+/− myoblasts/myotubes, LacZ reporter, β-galactosidase cleavage of FDG
Set-up: species or system mouse; Results in α7+/− β-galactosidase assay: scale not given here
Details: for Results in α7+/− β-galactosidase assay: Myoblasts
Method: An α7 integrin null mouse was produced in which exon 1 of the gene encoding the α7 integrin was replaced by the LacZ reporter. In these mice, all the transcriptional regulatory elements of the α7 integrin promoter were retained, allowing β-galactosidase to report expression of 7 integrin. A primary myoblast cell line (designated α7βgal^+/−) isolated from 10 day old α7^+/− pups were analyzed for the ability of β-galactosidase to report α7 integrin expression. α7βgal^+/− myoblasts were differentiated and subjected to X-gal staining and western analysis (FIGS. 1A and 1B).
The activity of the α7 integrin promoter was measured by β-galactosidase cleavage of the non-fluorescent compound fluorescein di-β-D-galactopyranoside (FDG) to fluorescein. This assay was used to screen compound libraries to identify molecules that up-regulate α7 integrin expression in muscle.
Also evaluated was the effect of various isoforms of laminin and the ligand for α7β1 integrin on integrin expression. Positive hits were subjected to dose-response analysis, western analysis and a myostatin counterscreen (a negative regulator of muscle growth).

Structure (SMILES)	Results in a α7+/− β-galactosidase assay, Myotubes, 0.5 uM (Myotubes, compound at 0.5 uM)	Results in a α7+/− β-galactosidase assay, Myotubes, 1 uM (Myotubes, compound at 1 uM)	Results in a α7+/− β-galactosidase assay, Myotubes, 5 uM (Myotubes, compound at 5 uM)	Results in a α7+/− β-galactosidase assay, Myotubes, 10 uM (Myotubes, compound at 10 uM)	Results in a α7+/− β-galactosidase assay, Myotubes, 20 uM (Myotubes, compound at 20 uM)	Results in a α7+/− β-galactosidase assay, Myotubes, 40 uM (Myotubes, compound at 40 uM)	further results
CCOC(=O)c1nnn(-c2nonc2OC)c1-c1ccccc1 [drawing 344]	0.0549	0.07612	0.1364	0.03578	0.0782	−0.03173	
COc1ccc(C(=O)/C=C2\C(=O)Nc3ccccc32)cc1 [drawing 361]	0.1208	0.06821	−0.04505	−0.256	−0.3122	−0.5124	
CCc1nc2ccccc2c(C(=O)NCc2ccccc2)c1C [drawing 461]	−0.0989	−0.1627	0.438	0.1173	−0.1092	0.1436	
O=C(O)C(Cc1ccc(O)cc1)N1C(=O)c2ccccc2C1=O (stereo not drawn) [drawing 411]	0.0905	0.1588	0.2927	−0.09211	0.2266	0.06733	
COc1ccc(NC(=O)C2(N(C(=O)Cn3nnnc3N)c3ccc(OC)cc3)CCCCC2)cc1 [drawing 324]	0.05381	0.1378	0.2107	−0.07457	−0.3633	−0.2285	
CCOn1c(=O)c(-c2ccccc2)[n+]([O-])c2ccccc21 [drawing 332]	0.2995	0.2794	0.2514	0.005171	−0.0871	−0.1572	
COc1ccc(C(=O)Nc2ccc(Cl)cn2)cc1Cl [drawing 498]	0.01557	−0.1102	−0.4051	−0.6189	−0.2285	−0.2585	
COc1ccc(OC)c(S(=O)(=O)Nc2c(NC3CCCCC3)c3ccccc3oc2=O)c1 [drawing 448]	0.01269	−0.0336	0.04486	−0.2638	−0.05892	−0.2063	
CCOc1ccccc1Nc1cc2n(c(=O)n1)CCc1cc(OC)c(OC)cc1-2 [drawing 646]							Results in α7+/− β-galactosidase assay (0.5 uM): −0.02172; Results in α7+/− β-galactosidase assay (1 uM): 0.002645; Results in α7+/− β-galactosidase assay (5 uM): −0.2359; Results in α7+/− β-galactosidase assay (10 uM): −0.3859; Results in α7+/− β-galactosidase assay (20 uM): −0.7975; Results in α7+/− β-galactosidase assay (40 uM): −0.7954
C#CC1(O)CCC2C3CCC4=C/C(=N/OCC(=O)NCC(=O)NC(C(=O)O)C(C)C)CC[C@]4(C)C3CC[C@@]21C (stereo partly drawn)							Results in a α7+/− β-galactosidase assay, Myotubes, 0.5 uM: 0.1086; Results in a α7+/− β-galactosidase assay, Myotubes, 1 uM: 0.2546; Results in a α7+/− β-galactosidase assay, Myotubes, 5 uM: 0.3822; Results in a α7+/− β-galactosidase assay, Myotubes, 10 uM: 0.2484; Results in a α7+/− β-galactosidase assay, Myotubes, 20 uM: 0.1342; Results in a α7+/− β-galactosidase assay, Myotubes, 40 uM: 0.073
NC(=O)COc1ccc(C(=O)/C=C2\C(=O)Nc3ccccc32)cc1 [drawing 379]	0.04116	0.06227	0.08579	−0.1303	−0.2553	−0.6822	
Cc1cc(NC(=O)CCC(=O)N(Cc2cccnc2)C(C(=O)NC(C)(C)C)c2ccccc2Cl)no1 (stereo not drawn) [Compound 29]							AC50 (Mus musculus, Table 12, log of AC50, given with negative sign, unit of AC50 not given, read-out: Fit Log AC50 (converted)): 3.98 µM; Emax (Mus musculus, read-out: Max Response [%]): 54.9%; Fit HillSlope (Table 12, curve fit): 1.7885; Fit Zero Activity [%] (Table 12, fitted activity at zero concentration): −25.4387%; Fit Curve Class (Table 12, key not given): 1.1; Score (Table 12 Compound data, concentration-response curve fit): 83
